Publication PMC5614603, “Structural insights into substrate selectivity of ribosomal RNA methyltransferase RlmCD” (PLoS ONE, 2017)

B1: m5U747 rRNA-h35 (18-mer, 23S rRNA helix 35) (structured_RNA)
RNA: GGCACGUUGAAAAGUGCC
modifications: m5U at position 8 (U747)

Assays:
RlmCDs = molecular target: T1, RlmCDs (Streptococcus pneumoniae, UniProt Q97R12); assay: in-vitro methyltransferase assay, 3H counting on RNA; format: biochemical; settings: labelled compound (3H-SAM); 18-mer rRNA-h35, 3 mM MgCl2, pH 8.0, 37 °C, 2 h
T1 construct: gene SP_1029; core region residues 1-454; 8xHis-SUMO tag cut by ULP1; E. coli BL21 (Gold)

RlmCDs E443Q = RlmCDs E443Q (Streptococcus pneumoniae, UniProt Q97R12 1-454, E443Q); assay: crystal structure (2.85 A); SAH (SAM added); only the 5-bp stem modelled, loop not visible; Crystallization: 8 mg/ml protein, protein:SAM:RNA 1:2:1.2, 0.1 M ammonium sulfate, 0.01 M MgCl2, 0.05 M MES, 20% w/v PEG8000, pH 5.6; protein storage buffer 20; settings: protein: recombinant; tags: N-terminal 8xHis-SUMO, cleaved with ULP1; hairpin

Molecule | in-vitro methyltransferase assay, 3H counting on RNA (RlmCDs) | binding result (RlmCDs E443Q)
C[S+](CC[C@H](N)C(=O)O)C[C@H]1O[C@@H](n2cnc3c(N)ncnc32)[C@H](O)[C@@H]1O (some centres unmarked) [SAM] | both full-length RlmCD and its shorter construct RlmCDs exhibit strong MTase activity | –
B1 | – | binds
